Data from article PMC8778187, “A New Oxygen Containing Pyclen-Type Ligand as a Manganese(II) Binder for MRI and ^52Mn PET Applications: Equilibrium, Kinetic, Relaxometric, Structural and Radiochemical Studies” (Molecules, 2022).

Key:
[1] = Stability and protonation constants of Ca(II) complexes by pH-potentiometry; format: physicochemical; details: Ca^2+ complex; T = 25 °C, I = 0.15 M NaCl
Method: (§1) The stability and protonation constants of the metal complexes formed with H2OPC2A were determined by pH-potentiometric titrations, but, for the Cu(II) complex, UV-Vis spectrophotometric measurements were also carried out to supplement the pH-potentiometric titration data (Figures S21 and S22, Supporting Information).
(§2) Metal stock solutions were prepared from the highest analytical grade chemicals, and their concentrations were determined by complexometric titration with standardized Na2H2EDTA and eriochrome black T indicator in the presence of ascorbic acid, and potassium hydrogen tartrate for MnCl2, murexide indicator for CaCl2 and CuCl2, eriochrome black T for MgCl2 and xylenol orange in the presence of hexamethylenetetramine for the solution of ZnCl2. The concentration of the ligand stock solution was determined by pH-potentiometric titrations. The protonation constants of the ligand were determined by the pH potentiometric titrations with 0.15 M NaOH, using 0.0025 M ligand solutions. The ionic strength was set to 0.15 M by using NaCl. […]
To avoid the effect of CO2, N2 gas was bubbled through the solutions during the titrations process. […] For the calibration of the pH meter, KH-phtalate (pH = 4.005) and borax (pH = 9.177) buffers were used, and the H^+ ion concentrations were calculated from the measured pH values by applying the method proposed by Irving et al.. […]

[2] = Stability and protonation constants of Cu(II) complexes by pH-potentiometry and UV-Vis spectrophotometry; format: physicochemical; details: Cu^2+ complex, T = 25 °C, I = 0.15 M NaCl
Method: as §1
as §2, with “NaCl. The titrated samples (starting volume of 6 mL) were stirred mechanically, and thermostated at 25 °C by a circulating water bath (±0.1 °C).” for “NaCl.”
To avoid the effect of CO2, N2 gas was bubbled through the solutions during the titrations process. […] For the calibration of the pH meter, KH-phtalate (pH = 4.005) and borax (pH = 9.177) buffers were used, and the H^+ ion concentrations were calculated from the measured pH values by applying the method proposed by Irving et al.. A solution of approximately 0.01 M HCl was titrated with a 0.15 M NaOH solution (0.15 or 1.00 M NaCl), and the differences between the measured and calculated pH values (for the points with pH < 2.4) were used to calculate the (H^+) from the pH values measured in the titration experiments. […] The stability constants of the metal complexes (except for Cu(II)) were determined using the direct pH-potentiometric method, by titrating samples with 1:1 metal-to-ligand ratios (the number of fitted data pairs were between 127–212), allowing 1 min for the sample equilibration to occur. […]

O=C(O)CN1CCOCCN(CC(=O)O)Cc2cccc(n2)C1 [H23,9-OPC2A, 6-Oxa-3,9,15-triazabicyclo(9.3.1)pentadeca-1(15),11,13-triene-3,9-diacetic acid]
log KMnL [1]: 8.27(1)
log KMnLOH [2]: 10.50(5)
log KMnHL ([2]; footnote g): 1.92(4) ^g
log KMnL ([2]; footnote g): 18.41(4) ^g
